Results from US9505735B2, “Compounds for treating infectious diseases” (Whitehead Institute for Biomedical Research, priority 2012, dated 2016).

Key:
[1] = test system: C. albicans Sc5314 cell surface β-glucan; test: β-Glucan staining (microscopy, flow cytometry); format: cell-based
Protocol: Overnight treatment and staining of C. albicans strain Sc5314 was performed as previously described for caspofungin treatment using YPD media at 30° C. to maintain growth in the yeast form (Wheeler, et al. (2006) PLoS Pathog 2, e35). Antibody to (1-3) β-D-glucan was obtained from Biosupplies (Australia). Cells were propidium iodide (PI) stained to assess viability and only PI-negative cells were analyzed. Microscopy was performed on a Nikon Eclipse microscope with a 100× oil objective.

[2] = test system: S. cerevisiae strains deleted for IRE1 or HAC1; test: Antifungal susceptibility testing of UPR-deficient strains; format: cell-based; conditions: 48 hour
Protocol: (A) Immunoblots of lysates prepared from S. cerevisiae treated with gepinacin showing GPI-anchor-selective impairment of protein maturation. The unprocessed (u), precursor (p), and mature (m) forms of the reporter proteins are indicated. The identity of the tagged reporter proteins (top of panel) and the antibodies used for their detection (bottom of panel) are also indicated. Treatment conditions are DMSO (0.05%), gepinacin (GPN, 10 μM) or tunicamycin (Tun, 10 μM). The same lysate was used for both blots. […] GFP expression was monitored by flow cytometry. (C) Anti-fungal susceptibility testing of strains deleted for IRE1 (activator of the UPR) or HAC1 (effector of the UPR) showing their increased sensitivity to gepinacin.
Anti-fungal susceptibility testing of strains bearing deletion of IRE1 (activator of the UPR) or HAC1 (effector of the UPR) using either […] (A) or fluconazole (B). Growth was measured by OD600 after 48 hour exposure to serial dilutions of the compounds as indicated. Results are expressed as a fraction of the OD600 measured in the absence of gepinacin. The mean and standard deviation of triplicate determinations are shown.

[3] = test system: mammalian cells (293T, mouse embryo fibroblasts); test: Mammalian cell toxicity testing (Cell Titer-Glo); format: cell-based, human; conditions: 20 μM, 48 hours
Protocol: (B) Anti-fungal susceptibility testing for an evolutionarily diverse group of fungi treated with gepinacin. For A. terreus the MIC50 and MIC80 are plotted. (C) Anti-fungal susceptibility testing for wild type C. albicans and strains resistant to the three major classes of anti-fungals treated with gepinacin. (D) Mammalian cell toxicity testing for proliferating human cells in culture (293T) or quiescent cells (mouse embryo fibroblasts). Cells were treated with gepinacin (20 μM) for 48 hours after which relative viable cell number was measured by standard luciferase assay (Cell Titer-Glo®, Promega).

[4] = test system: unfolded protein response; test: Unfolded protein response GFP reporter (UPRE-GFP), flow cytometry; format: cell-based, S. cerevisiae; conditions: 5 hours
Protocol: Induction of the unfolded protein response in cells carrying a GFP reporter construct was monitored by flow cytometry after exposure to serial dilutions of the indicated compounds for 5 hrs.
The plasmid pRS304-4XUPRE-GFP was linearized and integrated into the TRP1 locus of S. cerevisiae (W303) to construct a reporter strain as previously described (Cox, et al. (1993) Cell 73, 1197-1206; Pollard, et al. (1998) Mol Cell 1, 171-182). Reporter cells were grown to log phase and exposed to compound at 23° C. for 5 hours before analysis. GFP reporter induction was monitored on a Guava EasyCyte Plus cytometer. The average mean channel fluorescence of duplicate samples was determined, and the experiment was performed twice with similar results.

`COc1ccc(NC(=O)COc2cccc(OCC(C)C)c2)cc1` [gepinacin] was tested, and the “increase in median channel fluorescence (β-glucan, flow cytometry) versus control” value [1] was 4.5 fold, the “β-glucan presentation on the cell surface (immunostaining)” value ([1]; sub-lethal concentrations (5 μM)) was “dramatically increase” and the “change of toxicity by deletion of HAC1 or IRE1” value [2] was “greatly increased the toxicity”. For the same compound, the “cytotoxicity for mammalian cells” value [3] was “Lack of cytotoxicity” and the “activation of the unfolded protein response (GFP reporter)” value [4] was “massive, concentration-dependent activation”.
